Results reported in PMC11952222, “Development and comparison of single FLT3-inhibitors to dual FLT3/TAF1-inhibitors as an anti-leukemic approach” (PLOS One, 2025).
Values joined by “and” are separate entries in the source; they are usually repeats but may differ in a detail not shown here. Identical values can stand only once. Like-named read-outs stand apart in the source and are kept apart here.

What was measured:
FLT3 = target: T1, FLT3 (Homo sapiens, UniProt P36888); test: Eurofins/DiscoverX KdELECT, FLT3 kinase IC50; format: binding; settings: 11-point 3-fold dilution, top concentration 10,000 nM
T1 construct: purchased Eurofins/DiscoverX
T1 sequence (P36888 27-993): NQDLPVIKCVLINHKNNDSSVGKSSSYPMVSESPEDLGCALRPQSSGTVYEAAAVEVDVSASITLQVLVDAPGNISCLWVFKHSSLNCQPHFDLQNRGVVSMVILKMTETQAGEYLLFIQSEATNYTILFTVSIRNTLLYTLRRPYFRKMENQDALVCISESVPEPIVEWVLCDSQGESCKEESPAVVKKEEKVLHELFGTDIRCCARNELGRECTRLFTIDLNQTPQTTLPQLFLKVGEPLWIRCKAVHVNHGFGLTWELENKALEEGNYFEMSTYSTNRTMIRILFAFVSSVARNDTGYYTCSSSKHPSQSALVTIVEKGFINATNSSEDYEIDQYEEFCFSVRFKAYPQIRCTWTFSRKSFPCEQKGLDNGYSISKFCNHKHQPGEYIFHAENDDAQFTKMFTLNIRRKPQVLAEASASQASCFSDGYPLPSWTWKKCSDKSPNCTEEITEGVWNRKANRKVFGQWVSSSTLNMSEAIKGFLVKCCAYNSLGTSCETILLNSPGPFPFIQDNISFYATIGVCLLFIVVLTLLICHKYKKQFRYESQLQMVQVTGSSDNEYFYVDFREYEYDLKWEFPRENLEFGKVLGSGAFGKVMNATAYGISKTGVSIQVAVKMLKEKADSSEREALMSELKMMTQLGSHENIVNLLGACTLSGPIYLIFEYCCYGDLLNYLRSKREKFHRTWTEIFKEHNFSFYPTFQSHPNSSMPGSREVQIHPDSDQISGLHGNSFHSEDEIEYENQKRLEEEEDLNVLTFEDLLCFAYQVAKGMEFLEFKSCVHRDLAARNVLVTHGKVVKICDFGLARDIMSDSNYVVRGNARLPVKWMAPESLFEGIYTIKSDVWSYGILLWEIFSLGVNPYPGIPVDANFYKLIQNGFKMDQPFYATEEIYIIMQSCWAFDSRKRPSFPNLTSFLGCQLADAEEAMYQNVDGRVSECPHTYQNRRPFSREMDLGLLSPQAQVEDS
Protocol: (§1) The 3i-compounds underwent activity testing against a panel of 32 bromodomains using the Eurofins/DiscoverX bromoMAX assay, with specific focus on TAF1(2) bromodomain assessed by the KdELECT assay. In a similar manner, kinase activity was evaluated using a panel of 97 kinase proteins using the Eurofins/DiscoverX scanELECT and KdELECT assays, with specific focus on FLT3 protein. An 11-point 3-fold serial dilution of each test compound was prepared in 100% DMSO at 100x final test concentration and subsequently diluted to final concentration (DMSO 1%). […] Percent control was calculated using the following formula: ((test compound signal – positive control signal)/ (negative control signal – positive control signal)) × 100.

MOLM13 cells = test: Cell viability, CellTiter Glo, MOLM13; format: cell-based; settings: for IC50: 72h
Protocol: (§2) Drug sensitivity and resistance testing in MOLM13, DU4475, HDQP1, and IGROV1 cells was conducted at the Finnish Institute for Molecular Medicine (FIMM), University of Helsinki. In brief, the effects of compounds on cell viability and cell death were quantified with Cell-Titer Glo (Promega) and CellTox Green (Promega), respectively. Compounds or vehicle control were included in cell culture medium at described concentrations for 72h using an automated liquid dispenser in 384-well format. For KASUMI-1 experiments, cells were grown in 96-well plates and similarly incubated with compounds at indicated concentrations for 72h in RPMI + 10% FCS + Gentamicin, followed by lysis and quantification of cell viability with Cell-Titer Glo (Promega).
(§3) Raw values from viability and toxicity assays were normalized to DMSO and plotted to heat maps in R using pheatmap (RRID:SCR_016418). Dose-response curves were generated using the drc package in R [40]. In brief, nonlinear modelling was performed to calculate IC50 values for each compound where possible and resulting curves from drc and experimental values were plotted using ggplot2 (RRID:SCR_014601).

IGROV1 cells = test: Cell viability, CellTiter Glo, IGROV1; format: cell-based
Protocol: as §2, §3

DU4475 cells = test: Cell toxicity, CellTox Green, DU4475; format: cell-based; settings: CellTox Green relative to DMSO
Protocol: as §2, §3

c-KIT = target: T2, c-KIT (Homo sapiens, UniProt P10721); test: Eurofins/DiscoverX kinase assay, c-KIT IC50; format: binding
T2 construct: purchased Eurofins/DiscoverX
Protocol: as §1

PDGFRB = target: T3, PDGFRB (Homo sapiens, UniProt P09619); test: Eurofins/DiscoverX kinase assay, PDGFRB IC50; format: binding
T3 construct: purchased Eurofins/DiscoverX
Protocol: as §1

KASUMI-1 cells = test: Cell viability, CellTiter Glo, KASUMI-1; format: cell-based; settings: compared to dual FLT3/TAF1(2) compounds 3i-1103, 3i-1246, 3i-1248
Protocol: as §2, §3

[1] = one independent experiment per value, read-out: MOLM13 IC50, individual dose-response curve (CellTiter Glo)
[2] = Homo sapiens, MOLM-13, 72 h, mean of n = 3 independent experiments, read-out: MOLM13 IC50 (CellTiter Glo)
[3] = 72h, one independent experiment per value, read-out: IGROV1 IC50, individual dose-response curve (CellTiter Glo)
[4] = Homo sapiens, IGROV-1, 72 h, one independent experiment per value, read-out: IGROV1 IC50, individual dose-response curve (CellTiter Glo)
[5] = Homo sapiens, IGROV-1, 72 h, mean of n = 3 independent experiments, read-out: IGROV1 IC50 (CellTiter Glo)

T2 sequence (P10721 26-976): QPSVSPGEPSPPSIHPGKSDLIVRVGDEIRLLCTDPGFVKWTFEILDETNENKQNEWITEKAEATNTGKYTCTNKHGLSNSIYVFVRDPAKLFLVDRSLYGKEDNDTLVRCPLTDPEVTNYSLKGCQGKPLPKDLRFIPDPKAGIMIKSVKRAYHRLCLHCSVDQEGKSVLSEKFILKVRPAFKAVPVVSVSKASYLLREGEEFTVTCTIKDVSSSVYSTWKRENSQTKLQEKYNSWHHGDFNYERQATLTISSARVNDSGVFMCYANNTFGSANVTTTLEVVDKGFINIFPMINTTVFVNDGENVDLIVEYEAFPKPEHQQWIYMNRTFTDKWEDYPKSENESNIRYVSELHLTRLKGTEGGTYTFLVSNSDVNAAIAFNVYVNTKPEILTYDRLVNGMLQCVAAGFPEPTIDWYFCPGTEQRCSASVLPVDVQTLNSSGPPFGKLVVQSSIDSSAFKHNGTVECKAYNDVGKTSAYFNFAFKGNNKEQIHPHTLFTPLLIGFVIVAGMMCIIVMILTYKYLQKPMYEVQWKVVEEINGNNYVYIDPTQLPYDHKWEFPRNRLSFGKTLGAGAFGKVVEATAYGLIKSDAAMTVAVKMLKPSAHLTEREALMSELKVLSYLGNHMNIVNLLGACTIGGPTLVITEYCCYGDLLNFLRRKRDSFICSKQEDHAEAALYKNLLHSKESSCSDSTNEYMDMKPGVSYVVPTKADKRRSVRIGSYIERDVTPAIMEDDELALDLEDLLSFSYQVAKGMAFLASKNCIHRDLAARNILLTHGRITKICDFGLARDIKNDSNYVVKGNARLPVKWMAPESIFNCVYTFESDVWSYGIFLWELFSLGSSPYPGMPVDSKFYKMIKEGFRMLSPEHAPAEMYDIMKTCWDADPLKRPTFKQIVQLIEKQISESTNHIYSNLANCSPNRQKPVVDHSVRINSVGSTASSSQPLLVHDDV
T3 sequence (P09619 33-1106): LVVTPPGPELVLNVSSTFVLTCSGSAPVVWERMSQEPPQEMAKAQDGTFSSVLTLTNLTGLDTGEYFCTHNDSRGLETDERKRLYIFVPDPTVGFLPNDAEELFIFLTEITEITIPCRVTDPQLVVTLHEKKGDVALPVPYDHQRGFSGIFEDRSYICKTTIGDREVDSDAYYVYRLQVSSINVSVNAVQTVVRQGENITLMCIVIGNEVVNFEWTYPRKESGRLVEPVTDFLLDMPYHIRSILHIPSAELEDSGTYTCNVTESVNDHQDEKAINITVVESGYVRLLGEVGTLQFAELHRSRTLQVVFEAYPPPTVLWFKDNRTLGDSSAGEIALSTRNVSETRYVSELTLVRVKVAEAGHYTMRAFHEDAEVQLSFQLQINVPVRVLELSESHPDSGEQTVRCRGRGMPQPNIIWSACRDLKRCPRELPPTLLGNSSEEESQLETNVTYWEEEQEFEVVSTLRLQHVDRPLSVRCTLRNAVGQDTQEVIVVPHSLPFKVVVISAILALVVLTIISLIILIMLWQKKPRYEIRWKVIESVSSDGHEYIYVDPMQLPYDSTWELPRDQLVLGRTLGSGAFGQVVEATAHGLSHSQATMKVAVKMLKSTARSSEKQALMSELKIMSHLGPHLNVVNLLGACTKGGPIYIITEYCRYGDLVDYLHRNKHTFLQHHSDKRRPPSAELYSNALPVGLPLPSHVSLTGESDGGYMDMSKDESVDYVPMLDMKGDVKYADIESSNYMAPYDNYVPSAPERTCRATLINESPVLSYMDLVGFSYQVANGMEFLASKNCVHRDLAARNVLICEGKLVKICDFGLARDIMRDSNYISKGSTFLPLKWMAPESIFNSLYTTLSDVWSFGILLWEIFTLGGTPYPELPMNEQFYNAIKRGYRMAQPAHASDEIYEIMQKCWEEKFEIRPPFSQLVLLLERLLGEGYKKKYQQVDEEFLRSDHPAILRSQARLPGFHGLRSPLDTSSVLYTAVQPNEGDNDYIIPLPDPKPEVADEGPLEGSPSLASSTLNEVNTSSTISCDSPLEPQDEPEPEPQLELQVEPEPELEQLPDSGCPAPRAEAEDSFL

Q: `COc1ccc(-c2cc(NC(=O)c3ccc(C(C)(C)C)cc3)[nH]n2)cc1` [Compound 3i-1103] was tested. Which IC50 (FLT3) did it give?
A: The IC50 was < 1000 nM.

Q: What about the IC50 (MOLM13 cells; [1]) of the same molecule?
A: The IC50 was 93.4 nM and 80.7 nM and 190 nM.

Q: And the IC50 (MOLM13 cells; [2])?
A: Its IC50 is 122 nM.

Q: And the IC50 (IGROV1 cells; [3])?
A: Its IC50 is > 30000 nM.

Q: What about the IC50 (IGROV1 cells; [4]) of the same molecule?
A: The IC50 was 17800 nM.

Q: And the “CTX normalized_to_DMSO” value (DU4475 cells; DU4475, exp 1, 0.3 µM)?
A: The value was 1.007.

Q: What about the “CTX normalized_to_DMSO” value (DU4475 cells; DU4475, exp 1, 1 µM) of the same molecule?
A: Its value is 0.9954.

Q: What about the “CTX normalized_to_DMSO” value (DU4475 cells; DU4475, exp 1, 3 µM) of the same molecule?
A: The value was 0.9628.

Q: What about the “CTX normalized_to_DMSO” value (DU4475 cells; DU4475, exp 1, 10 µM) of the same molecule?
A: The value was 0.9392.

Q: What about the “CTX normalized_to_DMSO” value (DU4475 cells; DU4475, exp 1, 30 µM) of the same molecule?
A: Its value is 0.7319.

Q: For `CC(C)(C)c1ccc(C(=O)Nc2cc(-c3ccccc3)n[nH]2)cc1` [Compound 3i-1247, 4-(tert-butyl)-N-(3-phenyl-1H-pyrazol-5-yl)benzamide], which IC50 (FLT3) is on record?
A: The IC50 was 1.5 nM.

Q: What about the IC50 (c-KIT) of the same molecule?
A: Its IC50 is 8.5 nM.

Q: What about the IC50 (PDGFRB) of the same molecule?
A: Its IC50 is 3.4 nM.

Q: What about the IC50 (MOLM13 cells; mean of n = 3 independent experiments, read-out: MOLM13 IC50 (CellTiter Glo)) of the same molecule?
A: Its IC50 is 72.6 nM.

Q: And the IC50 (MOLM13 cells; [1])?
A: The IC50 was 38.7 nM and 137 nM and 42.4 nM.

Q: And the “anti-proliferative activity in MOLM13 cells” value (MOLM13 cells; comparison within the compound set)?
A: Its value is “most potent compound overall”.

Q: And the IC50 (IGROV1 cells; 72h, mean of n = 3 independent experiments, read-out: IGROV1 IC50 (CellTiter Glo))?
A: Its IC50 is 3300 nM.

Q: What about the IC50 (IGROV1 cells; [3]) of the same molecule?
A: The IC50 was 3500 nM and 3800 nM and 2500 nM.

Q: And the “anti-proliferative activity in KASUMI-1 cells” value (KASUMI-1 cells)?
A: The value was “superior anti-proliferative activity”.

Q: How did the IC50 (FLT3) turn out when `Cn1cc(-c2cc(NC(=O)c3ccc(C(C)(C)C)cc3)n[nH]2)ccc1=O` [Compound 3i-1248, 4-(tert-butyl)-N-(5-(1-methyl-6-oxo-1,6-dihydropyridin-3-yl)-1H-pyrazol-3-yl)benzamide] was run?
A: Its IC50 is < 1000 nM.

Q: What about the IC50 (MOLM13 cells; [1]) of the same molecule?
A: Its IC50 is 539 nM and 1580 nM and 702 nM.

Q: What about the IC50 (MOLM13 cells; [2]) of the same molecule?
A: Its IC50 is 940 nM.

Q: What about the IC50 (IGROV1 cells; [3]) of the same molecule?
A: Its IC50 is 10500 nM and 7700 nM.

Q: And the IC50 (IGROV1 cells; [5])?
A: The IC50 was 10000 nM.

Q: What about the IC50 (IGROV1 cells; [4]) of the same molecule?
A: The IC50 was 11800 nM.

Q: Which results are given for `Cc1cc(-c2cc(NC(=O)c3ccc(C(C)(C)C)cc3)[nH]n2)ccn1` [Compound 3i-1246, 4-(tert-butyl)-N-(3-(2-methylpyridin-4-yl)-1H-pyrazol-5-yl)benzamide]?
A: IC50 (FLT3): 18 nM; IC50 (MOLM13 cells; [1]): 183 nM and 423 nM and 272 nM; IC50 (MOLM13 cells; [2]): 293 nM; IC50 (IGROV1 cells; [3]): 11600 nM and 8800 nM; IC50 (IGROV1 cells; [5]): 10900 nM; IC50 (IGROV1 cells; [4]): 12100 nM
